Data from US20230357233A1, “HETEROARYL COMPOUNDS, PREPARATION METHODS AND USES THEREOF” (INVENTISBIO CO., LTD., priority 2020, published 2023).

Tests used:
[1] = molecular target: Ba/F3_KRAS^G12D cells (Homo sapiens, UniProt P01116, G12D, cells depend on it); test: Ba/F3 KRAS^G12D cell proliferation assay (cell-titer Glo); format: cell-based; conditions: cell growth inhibition, treated with the compounds for 3 days, read-out: BaF3_KRAS^G12D IC50
[2] = molecular target: recombinant human KRAS^G12D protein (Homo sapiens, UniProt P01116, G12D); test: Temperature-dependent Fluorescence (TdF) KRAS^G12D protein binding assay; conditions: 6 μM KRAS^G12D Protein, 10 μM compound, Sypro Orange; Kd calculated from fluorescent shift
Procedure: The TdF assay was conducted in the 96-well-based real-time fluorescence plate reader (ABI 7500 or Roche LightCycler 480). Fluorescent dye Sypro Orange (Sigma) was used to monitor the protein folding-unfolding transition. Protein-compound binding was gauged by the shift in the unfolding transition temperature (ΔTm) acquired with and without compound. […] The sample plate was heated from 30° C. to 95° C. with a thermal ramping rate of […], taking a fluorescence reading every 0.4° C. using a CY3 channel matching the excitation and emission wavelengths of Sypro Orange (λ ex 470 nm; λ em 570 nm). Binding affinity (Kd value) was calculated based on the degree of fluorescent shift of the protein with and without compound.

Chain of recombinant human KRAS^G12D protein (P01116 1-188 isoform P01116-2 G12D): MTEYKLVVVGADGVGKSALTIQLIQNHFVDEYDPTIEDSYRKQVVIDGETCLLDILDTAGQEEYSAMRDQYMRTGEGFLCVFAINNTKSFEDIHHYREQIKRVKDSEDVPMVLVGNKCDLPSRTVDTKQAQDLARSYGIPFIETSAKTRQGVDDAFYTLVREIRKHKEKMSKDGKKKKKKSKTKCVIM
Chain of Ba/F3_KRAS^G12D cells (P01116 whole entry G12D): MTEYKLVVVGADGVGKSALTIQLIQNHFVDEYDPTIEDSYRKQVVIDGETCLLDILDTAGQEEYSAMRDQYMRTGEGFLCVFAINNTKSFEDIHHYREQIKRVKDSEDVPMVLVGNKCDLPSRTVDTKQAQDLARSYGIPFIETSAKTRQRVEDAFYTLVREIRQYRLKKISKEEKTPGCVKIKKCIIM

GI50 [1] [µM]	Kd [2] [µM]	Compound
> 5	0.5 to 5	Oc1cc(-c2ncc3c(N4CC5CCC(C4)N5)cc(OCC45CCCN4CCC5)nc3c2F)c2c(Cl)cccc2c1 [Compound 71]
0.5 to 5	≤ 0.5	Oc1cc(-c2ncc3c(N4CCNCC4)nc(OC[C@@]45CCCN4C[C@H](F)C5)nc3c2F)c2c(Cl)cccc2c1 [Compound 72]
> 5	≤ 0.5	CN1CCC[C@H]1COc1nc(N2CCNCC2)c2cnc(-c3ccc(F)c4sc(N)nc34)c(F)c2n1 [Compound 73]
> 5	≤ 0.5	CC(=O)N1CCN(c2nc(OC[C@@]34CCCN3C[C@H](F)C4)nc3c(F)c(-c4cc(O)cc5cccc(Cl)c45)ncc23)CC1 [Compound 74]
> 5	≤ 0.5	Oc1cc(-c2ncc3c(N4CC5CCC(C4)N5)nc(OC[C@@]45CCCN4C[C@H](F)C5)c(Cl)c3n2)c2c(Cl)c(F)ccc2c1 [Compound 75]
< 0.5	≤ 0.5	Fc1ccc2cccc(-c3ncc4c(N5CC6CCC(C5)N6)nc(OC[C@@]56CCCN5C[C@H](F)C6)nc4c3F)c2c1Cl [Compound 76]
> 5	> 5	NC(=O)N1CCN(c2nc(OC[C@@]34CCCN3C[C@H](F)C4)nc3c(F)c(-c4cc(O)cc5cccc(Cl)c45)ncc23)CC1 [Compound 77]
0.5 to 5	≤ 0.5	Oc1cc(-c2ncc3c(N4CC5CCC(C4)N5)cc(OC[C@@]45CCCN4C[C@H](F)C5)nc3c2F)c2c(Cl)cccc2c1 [Compound 78]
> 5	> 5	O=C(C(O)O)N1CCN(c2nc(OC[C@@]34CCCN3C[C@H](F)C4)nc3c(F)c(-c4cc(O)cc5cccc(Cl)c45)ncc23)CC1 [Compound 79]
0.5 to 5	0.5 to 5	Oc1cc(-c2ncc3c(N4CC5CCC(C4)N5)cc(OC[C@@]45CCCN4C[C@H](F)C5)nc3c2F)c2ccccc2c1 [Compound 80]
< 0.5	≤ 0.5	Cc1nc(-c2cc(O)cc3ccccc23)c(F)c2nc(OC[C@@]34CCCN3C[C@H](F)C4)nc(N3CC4CCC(C3)N4)c12 [Compound 81]
< 0.5	> 5	Clc1cccc2cccc(-c3cc4nc(N5CCNCC5)ccc4c(OCC45CCCN4CCC5)n3)c12 [Compound 82]
0.5 to 5	> 5	Clc1cccc2cccc(-c3nc(OCC45CCCN4CCC5)c4ccc(N5CCNCC5)nc4c3Br)c12 [Compound 83]
0.5 to 5	0.5 to 5	Oc1cc(-c2cc3nc(OC[C@@]45CCCN4C[C@H](F)C5)nc(N4CC5CCC(C4)N5)c3nn2)c2ccccc2c1 [Compound 84]
< 0.5	≤ 0.5	CCc1cccc2cc(O)cc(-c3nc(C)c4c(N5CC6CCC(C5)N6)nc(OC[C@@]56CCCN5C[C@H](F)C6)nc4c3F)c12 [Compound 85]
0.5 to 5	> 5	COc1cc(-c2cc3nc(OC[C@@H]4CCCN4C)nc(N4CC5CCC(C4)N5)c3nc2OC)c2ccccc2c1 [Compound 86]
> 5	0.5 to 5	Cc1nc(-c2ccc(F)c3sc(N)nc23)c(F)c2nc(OC[C@@]34CCCN3C[C@H](F)C4)nc(N3CC4CCC(C3)N4)c12 [Compound 87]
> 5	> 5	CCc1cccc2cc(O)cc(-c3cc4c(cn3)c(N3CC5CCC(C3)N5)nc(=O)n4C[C@@H]3CCCN3C)c12 [Compound 88]
< 0.5	≤ 0.5	Cc1nc(-c2cc(O)cc3cccc(Cl)c23)c(F)c2nc(OC[C@@]34CCCN3C[C@H](F)C4)nc(N3CC4CCC(C3)N4)c12 [Compound 89]
0.5 to 5	0.5 to 5	Cc1nc(-c2cc(O)cc3cccc(Cl)c23)c(F)c2nc(OC[C@@]34CCCN3C[C@H](F)C4)nc(N3CC4CCC(C3)N4C)c12 [Compound 90]
0.5 to 5	0.5 to 5	COc1nc2c(N3CC4CCC(C3)N4)nc(OC[C@@H]3CCCN3C)nc2cc1-c1cc(O)cc2ccccc12 [Compound 91]
> 5	0.5 to 5	CN1CCC[C@H]1COc1nc(N2CC3CCC(C2)N3)c2[nH]c(=O)c(-c3cc(O)cc4ccccc34)cc2n1 [Compound 92]
< 0.5	≤ 0.5	Cc1cccc2cc(O)cc(-c3nc(C)c4c(N5CC6CCC(C5)N6)nc(OC[C@@]56CCCN5C[C@H](F)C6)nc4c3F)c12 [Compound 93]
0.5 to 5	≤ 0.5	Oc1cc(-c2cc3nc(OC[C@@]45CCCN4C[C@H](F)C5)nc(N4CC5CCC(C4)N5)c3nn2)c2c(Cl)cccc2c1 [Compound 94]
< 0.5	≤ 0.5	Oc1cc(-c2nc(Cl)c3c(N4CC5CCC(C4)N5)nc(OC[C@@]45CCCN4C[C@H](F)C5)nc3c2F)c2ccccc2c1 [Compound 95]
> 5	≤ 0.5	CC1(O)CN2CCC[C@@]2(COc2nc(N3CC4CCC(C3)N4)c3cnc(-c4cc(O)cc5cccc(Cl)c45)c(F)c3n2)C1 (stereo partly drawn) [Compound 96]

GI50 [1] [µM]	Kd [2] [µM]	Compound
> 5	> 5	Oc1cc(-c2ncc3c(N4CC5(CCCN5)C4)nc(OC[C@@]45CCCN4C[C@H](F)C5)nc3c2F)c2c(Cl)cccc2c1 [Compound 97]
0.5 to 5	> 5	N#Cc1c(-c2cccc3cccc(Cl)c23)nc(OCC23CCCN2CCC3)c2ccc(N3CCNCC3)nc12 [Compound 98]
0.5 to 5	> 5	Cc1nc(-c2ccc(F)c3nc(N)sc23)c(F)c2nc(OC[C@@]34CCCN3C[C@H](F)C4)nc(N3CC4CCC(C3)N4)c12 [Compound 99]
> 5	> 5	Oc1cc(-c2ncc3c(C4CC5CCC(C4)N5)nc(OC[C@@]45CCCN4C[C@H](F)C5)nc3c2F)c2c(Cl)cccc2c1 (stereo partly drawn) [Compound 100]
0.5 to 5	> 5	Oc1cc(-c2nc(OC[C@@]34CCCN3C[C@H](F)C4)c3ccc(N4CC5CCC(C4)N5)nc3c2Br)c2c(Cl)cccc2c1 [Compound 101]
> 5	> 5	Cc1cc(N)nc(-c2nc(C)c3c(N4CC5CCC(C4)N5)nc(OC[C@@]45CCCN4C[C@H](F)C5)nc3c2F)c1C1CC1 [Compound 102]
< 0.5	≤ 0.5	C#Cc1cccc2cc(O)cc(-c3nc(C)c4c(N5CC6CCC(C5)N6)nc(OC[C@@]56CCCN5C[C@H](F)C6)nc4c3F)c12 [Compound 103]
> 5	> 5	Oc1cc(-c2cc3nc(N4CC5CCC(C4)N5)ccc3c(OC[C@@]34CCCN3C[C@H](F)C4)n2)c2ccccc2c1 [Compound 104]
> 5	0.5 to 5	Cc1cc(N)nc(-c2nc(C)c3c(N4CC5CCC(C4)N5)nc(OC[C@@]45CCCN4C[C@H](F)C5)nc3c2F)c1C(F)(F)F [Compound 105]
< 0.5	≤ 0.5	Cc1nc(-c2cc(O)cc3cccc(C(F)(F)F)c23)c(F)c2nc(OC[C@@]34CCCN3C[C@H](F)C4)nc(N3CC4CCC(C3)N4)c12 [Compound 106]
0.5 to 5	> 5	Cc1cc2c(N3CC4CCC(C3)N4)nc(OCC34CCCN3CCC4)nc2c(=O)n1-c1cccc2ccccc12 [Compound 107]
> 5	> 5	O=c1c2nc(OCC34CCCN3CCC4)nc(N3CC4CCC(C3)N4)c2ccn1-c1cccc2ccccc12 [Compound 108]
> 5	> 5	O=c1cc2c(N3CC4CCC(C3)N4)nc(OCC34CCCN3CCC4)nc2cn1-c1cc(O)cc2ccccc12 [Compound 109]
0.5 to 5	> 5	O=c1cc2c(N3CC4CCC(C3)N4)nc(OCC34CCCN3CCC4)nc2cn1-c1cccc2ccccc12 [Compound 110]
> 5	> 5	O=c1cc2c(N3CC4CCC(C3)N4)nc(OCC34CCCN3CCC4)nc2cn1-c1cc(O)cc2cccc(Cl)c12 [Compound 111]
< 0.5	≤ 0.5	Oc1cc(-c2ncc3c(N4CC5CCC(C4)N5)nc(OC[C@@]45CCCN4C[C@H](F)C5)nc3c2F)c2c(Cl)cccc2c1 [Compound 112]
< 0.5	≤ 0.5	CCc1cccc2cc(O)cc(-c3nc(Cl)c4c(N5CC6CCC(C5)N6)nc(OC[C@@]56CCCN5C[C@H](F)C6)nc4c3F)c12 [Compound 113]
< 0.5	≤ 0.5	Oc1cc(-c2nc(Cl)c3c(N4CC5CCC(C4)N5)nc(OC[C@@]45CCCN4C[C@H](F)C5)nc3c2F)c2c(Cl)cccc2c1 [Compound 114]
> 5	≤ 0.5	Cc1nc(-c2cc(O)cc3cccc(C#N)c23)c(F)c2nc(OC[C@@]34CCCN3C[C@H](F)C4)nc(N3CC4CCC(C3)N4)c12 [Compound 115]
0.5 to 5	> 5	Cc1nc(-c2cc(C(F)F)cc3cccc(Cl)c23)c(F)c2nc(OC[C@@]34CCCN3C[C@H](F)C4)nc(N3CC4CCC(C3)N4)c12 [Compound 116]
< 0.5	≤ 0.5	CCc1cccc2cc(O)cc(-c3nc(C)c4c(N5CC6CCC(C5)N6)nc(OC[C@@]56CCCN5C[C@H](F)C6)nc4c3C)c12 [Compound 117]
< 0.5	≤ 0.5	CCc1cccc2cc(O)cc(-c3nc(CC)c4c(N5CC6CCC(C5)N6)nc(OC[C@@]56CCCN5C[C@H](F)C6)nc4c3F)c12 [Compound 118]
> 5	0.5 to 5	Cc1nc(-c2cc(O)cc3cccc(CCC#N)c23)c(F)c2nc(OC[C@@]34CCCN3C[C@H](F)C4)nc(N3CC4CCC(C3)N4)c12 [Compound 119]
< 0.5	≤ 0.5	Oc1cc(-c2nc(Cl)c3c(N4CC5CCC(C4)N5)nc(OC[C@@]45CCCN4C[C@H](F)C5)nc3c2Cl)c2c(Cl)cccc2c1 [Compound 120]
0.5 to 5	≤ 0.5	CCc1cccc2cc(O)cc(-c3cc4nc(OC[C@@]56CCCN5C[C@H](F)C6)nc(N5CC6CCC(C5)N6)c4c(C)n3)c12 [Compound 121]
